# Assay results published in PubChem BioAssay AID602480 (National Center for Advancing Translational Sciences (NCATS), 2012).
# Test system: aqueous solubility in PBS
# Assay: qHTS Assay for Inhibitors of Bacillus subtilis Sfp phosphopantetheinyl transferase (PPTase): Aqueous Solubility in PBS
# Source text: PPTases are responsible for the activation of a variety of pathogen-associated virulence factors. Among these compounds are toxins such as mycolactone from Mycobacterium ulcerans, siderophores such as vibriobactin from Vibrio cholerae or mycobactin from Mycobacterium tuberculosis, as well as the mycolic acids which form the waxy cell wall of Mycobacteria. The biosyntheses of these natural products are considered attractive targets for drug design. After a large qHTS and several follow-up assays, a small molecule was identified and this in vitro ADME assay serves to better characterize its properties.
# This profiling assay looks at the […] of a small molecule in PBS (pH 7.4). This is an important parameter as it has significant impact on in vivo results, such as uptake, distribution, transport, and eventually bioavailability. This outcome is also of utmost importance for decisions concerning assay data and SAR strategy.
# NIH Chemical Genomics Center [NCGC]
# NIH Molecular Libraries Probe Centers Network [MLPCN]
# Assay Submitter (PI): Michale Burkart, University of California, San Diego
# 1. 8ul of reference and test compound stock solution were added to 392ul 100mM phosphate buffer (pH 7.4)
# 2. Sample tubes were shaken for 1 hr (1000 rpm) at room temperature
# 3. […]
# 5. Concentration of the supernatant was determined by LC-UV or LC-MS/MS
smiles,measurement,value
COc1ccnc(NC(=S)N2CCN(c3ncc(C(F)(F)F)cc3Cl)CC2)c1,solubility,20 µM
